These results are taken from patent US9000153B2, “Imidazo[4,5-c]quinolines as DNA-PK inhibitors” (Merck Patent GmbH, priority 2010, dated 2015).

The first assay has as its target T1, DNA-PK (Homo sapiens (Human), UniProt P78527).
Assay: not given
As to conditions: cited from earlier work.
Turning to `O=c1cc(N2CCOCC2)oc2c(-c3cccc4c3sc3ccccc34)cccc12` [NU-7441], the IC50 was 20 nM.

The next assay has as its system mammal cells.
Assay: not given
As to conditions: in cellular terms; cited from earlier work.
Take `O=c1cc(N2CCOCC2)oc2c(-c3ccccc3)cccc12` [LY294002]: the “increase in sensitivity to ionising irradiation” value was “only a weak increase”.

The next assay deals with kinases of the PI3K isoenzyme family.
Assay: not given
As to conditions: cited from earlier work.
In the case of `CCN1CCN(CC(=O)Nc2ccc(-c3cccc4c(=O)cc(N5CCOCC5)oc34)c3sc4ccccc4c23)CC1` [KU-0060648], the “inhibition of PI3K isoenzyme family kinases” value was “potently inhibited”.

Another assay deals with T1, DNA-PK. In words: DNA-PK/biochemical assay (FlashPlate kinase assay). Particulars: 5 μM ATP, 90 min, room temperature. As to the method: The kinase assay was carried out in streptavidin-coated […] microtitre FlashPlates®. To this end, 1.5 μg of the DNA-PK/protein complex and 100 ng of biotinylated substrate, such as, for example, PESQEAFADLWKK biotin-NH2 (“biotin-DNA-PK peptide”), in a total volume of 36.5 μl (34.25 mM HEPES/KOH, 7.85 mM Tris-HCl, 68.5 mM KCl, 5 μM ATP, 6.85 mM MgCl2, 0.5 mM EDTA, 0.14 mM EGTA, 0.69 mM DTT, pH 7.4), were incubated at room temperature for 90 min with 500 ng of DNA from calf thymus, 0.1 μCi of 33P-ATP and 1.8% of DMSO per well with or without the test compound. The reaction was stopped using 50 μl/well of 200 mM EDTA. After incubation for a further 30 min at room temperature, the liquid was removed. Each well was washed three times with 100 μl of 0.9% sodium chloride solution. A non-specific reaction (blank value) was determined using 10 μM of a proprietary kinase inhibitor. The radioactivity measurement was carried out by means of a TopCount. IC50 values were calculated in RS1 (Kashishian et al. (2003) Molecular Cancer Therapeutics 1257).
As to `COc1cc2ncc3c(c2cc1OCc1ccncc1)n(-c1ccc(C#N)cc1F)c(=O)n3C` [Compound 20, 3-Fluoro-4-[7-methoxy-3-methyl-2-oxo-8-(pyridin-4-ylmethoxy)-2,3-dihydroimidazo[4,5-c]-quinolin-1-yl]benzonitrile], the IC50 is under 100 nM.

Compound `COc1cc2ncc3[nH]c(=O)n(-c4ccc(C#N)cc4F)c3c2cc1OCc1ccccc1` [Compound 8, 4-(8-Benzyloxy-7-methoxy-2-oxo-2,3-dihydroimidazo-[4,5-c]quinolin-1-yl)-3-fluorobenzonitrile] yielded an IC50 of under 100 nM.

Regarding `COc1cc2ncc3c(c2cc1OC(CN)c1ccc(F)cc1)n(-c1ccc(C#N)cc1F)c(=O)n3C` (stereo not shown) [Compound 32, 4-{8-[2-Amino-1-(4-fluorophenyl)ethoxy]-7-methoxy-3-methyl-2-oxo-2,3-dihydro-imidazo[4,5-c]quinolin-1-yl}-3-fluorobenzonitrile], the IC50 was in the range of 500 to 1000 nM.

Take `COCCNC(=O)C(Oc1cc2c(cc1OC)ncc1c2n(-c2ccc(C#N)cc2F)c(=O)n1C)c1ccc(F)cc1` (stereo not shown) [Compound 16, 2-[1-(4-Cyano-2-fluorophenyl)-7-methoxy-3-methyl-2-oxo-2,3-dihydro-1H-imidazo[4,5-c]-quinolin-8-yloxy]-2-(4-fluoro-phenyl)-N-(2-methoxyethyl)-acetamide]: the IC50 was 100 to 500 nM.

In the case of `COc1cc2ncc3c(c2cc1O)n(-c1ccc(C#N)cc1F)c(=O)n3C` [Compound 4, 3-Fluoro-4-(8-hydroxy-7-methoxy-3-methyl-2-oxo-2,3-dihydroimidazo[4,5-c]quinolin-1-yl)benzonitrile], the concentration for half-maximal inhibition (IC50) is under 100 nM.

Compound `COc1cc2ncc3c(c2cc1/C=C/c1ccccc1)n(-c1ccc(C#N)cc1F)c(=O)n3C` [Compound 43, 3-Fluoro-4-[7-methoxy-3-methyl-2-oxo-8-((E)-styryl)-2,3-dihydroimidazo[4,5-c]quinolin-1-yl]benzonitrile] yielded an IC50 of 100 to 500 nM.

In turn, `COc1cc2ncc3c(c2cc1-c1cnn(C)c1)n(-c1ccc(C#N)cc1F)c(=O)n3C` [Compound 36, 3-Fluoro-4-[7-methoxy-3-methyl-8-(1-methyl-1H-pyrazol-4-yl)-2-oxo-2,3-dihydroimidazo[4,5-c]-quinolin-1-yl]benzonitrile] gave a half-maximal inhibitory concentration (IC50) of under 100 nM.

As for `COc1cc2ncc3c(c2cc1OCc1ccccc1)n(-c1ccc(C#N)cc1)c(=O)n3C` [Compound 7, 4-(8-Benzyloxy-7-methoxy-3-methyl-2-oxo-2,3-dihydro-imidazo[4,5-c]quinolin-1-yl)-benzonitrile], the IC50 was under 100 nM.

`COc1cc2ncc3c(c2cc1OC(CN)c1cccs1)n(-c1ccc(C#N)cc1F)c(=O)n3C` (stereo not shown) [Compound 31, 4-[8-(2-Amino-1-thiophen-2-ylethoxy)-7-methoxy-3-methyl-2-oxo-2,3-dihydroimidazo-[4,5-c]quinolin-1-yl]-3-fluorobenzonitrile] had a 50% inhibitory concentration (IC50) of 100 to 500 nM.

As to `COc1cc2ncc3c(c2cc1OCc1cccs1)n(-c1ccc(C#N)cc1F)c(=O)n3C` [Compound 14, 3-Fluoro-4-(7-methoxy-3-methyl-2-oxo-8-(thiophen-2-ylmethoxy)-2,3-dihydroimidazo[4,5-c]-quinolin-1-yl)benzonitrile], the IC50 is under 100 nM.

The compound `COc1cc2ncc3c(c2cc1-c1ccn[nH]1)n(-c1ccc(C#N)cc1F)c(=O)n3C` [Compound 39, 3-Fluoro-4-[7-methoxy-3-methyl-2-oxo-8-(2H-pyrazol-3-yl)-2,3-dihydroimidazo[4,5-c]quinolin-1-yl]benzonitrile] had an IC50 of under 100 nM.

On to `COc1cc2ncc3c(c2cc1O)n(-c1ccc(C#N)cc1)c(=O)n3C` [Compound 3, 4-(8-Hydroxy-7-methoxy-3-methyl-2-oxo-2,3-dihydro-imidazo[4,5-c]quinolin-1-yl)-benzonitrile], for which the IC50 was under 100 nM.

Consider `COc1cc2ncc3c(c2cc1CCc1ccsc1)n(-c1ccc(C#N)cc1F)c(=O)n3C` [Compound 42, 3-Fluoro-4-[7-methoxy-3-methyl-2-oxo-8-(2-thiophen-3-ylethyl)-2,3-dihydroimidazo[4,5-c]-quinolin-1-yl]benzonitrile], for which the IC50 is 100 to 500 nM.
